We go through one compound from patent US20150307938A1, “METHOD TO IDENTIFY A NOVEL CLASS OF IMMUNOLOGIC ADJUVANTS” (Lancell, L.L.C., priority 2011, published 2015).

The subject of one series is ear skin. Nature of the series: Cutaneous lymphoid stress response gene expression after topical DBP on ear skin. The series is classed as in vivo. Particulars: ear skin of C57B1/6 mice. The text has this:
The cutaneous lymphoid stress response bears a strong resemblance to the effects of topical DBP. DBP is required for the induction of contact hypersensitivity to FITC in mice, a form of allergic response. Topical DBP induces the migration of Langerhans cells from the epidermis to draining lymph nodes. And, topical DBP acts as an adjuvant for antigens injected into the skin, including endotoxin-free OVA. One might expect, therefore, that topical DBP would cause the same effects as tape stripping or occlusive skin patch immunization. To our surprise, none of the effects that characterize the DETC-dependent cutaneous lymphoid stress-surveillance response are found in the response to DBP.

A further series deals with OVA. Nature of the series: Immune response to intradermal peptide (SIINFEKL) or protein (OVA) antigen, also alum-adsorbed OVA, with topical DBP. The series is classed as in vivo, mice. The text has this: Topical DBP induced a 16-fold increase in the IgG1 Ab response to OVA adsorbed to alum and increased the IgG2c response 26-fold.
The next series relates to tumor. Further details: species or system mice. Particulars: mouse, in vivo.
The subject of series [1] is Murine Skin Dendritic Cells. Nature of the series: Activation of murine skin dendritic cells by DBP vs. DBlT (DC per lymph node, CD86). The format is in vivo. The conditions noted are these: topical treatment.
A short description of series [2]: Estimate of maximum absorbed dose from transdermal transport rate of DBP on human skin in vivo. Particulars: from known transdermal transport rate on human skin in vivo.

Entries after “also recorded” stand apart in the source; their conditions may differ.

`CCCCOC(=O)c1ccccc1C(=O)OCCCC` [DBP, dibutylphthalate]: in the series with ear skin, the “expression of H60a” value is recorded as “no statistically significant increase”, the “expression of Il-13” value was “no statistically significant increase”, the “expression of Il-25” value is listed as “no statistically significant increase” and the “expression of KLrk1 (encodes NKG2D)” value is reported as “no statistically significant increase”. Moreover, the “expression of Rae-1” value with ear skin is recorded as “no statistically significant increase; also recorded: actually diminished”. Further, the “T cell and antibody responses” value with OVA (DBP on skin of mice injected intradermally with adjuvant-free SIINFEKL or OVA) was “dramatic increase”. The survival of anaphylaxis result in the series with OVA (high dose of alum-adsorbed OVA plus topical DBP, 60% succumbed without DBP) was “all of the mice survived”. In the series on OVA (topical DBP), the “increase in the IgG1 Ab response to OVA adsorbed to alum” value is recorded as 16 fold and the “increase in the IgG2c response to OVA adsorbed to alum” value was 26 fold. In addition, in the series with tumor, the tumor-specific immunity entry is “Protective and therapeutic tumor-specific immunity were induced”. The “MFI CD86” value in series [1] is listed as 618 (95). In series [2], the “maximum absorbed dose from topical use as an adjuvant, vs LOEL in pregnant rats” value is reported as “five logs lower than the LOEL” and the “maximum absorbed dose from topical use as an adjuvant, vs amount ingested daily” value is “no higher than the amount we ingest daily”.
